The results in this text go back to PMC7486443, “Generation of Phenothiazine with Potent Anti-TLK1 Activity for Prostate Cancer Therapy” (iScience, 2020).

What all share (experiment): biochemical
Common to all, as to set-up: DiscoverX KINOMEscan scanMAX competition binding panel, single concentration, percent of control; remaining binding: dose or concentration left out as unconfirmed
Holding throughout (conditions): KINOMEscan binding, percent of control; read-out: Table S4_SCANMAX REPORT - related to Fig. 1 / Percent Control

Test [1] concerns the target T1, YES (Homo sapiens, UniProt P07947).
T1 construct: gene YES1

In test [2] the target is T2, IKK-alpha (Homo sapiens, UniProt O15111).
T2 construct: gene CHUK

The target in test [3] is GSK3B (Homo sapiens, UniProt P49841).
Test [4] addresses FLT3(D835Y) (Homo sapiens, UniProt P36888, D835Y).
Test [5] concerns the target FGR (Homo sapiens, UniProt P09769).
Test [6] concerns the target T3, ERK8 (Homo sapiens, UniProt Q8TD08).
T3 construct: gene MAPK15

The target in test [7] is HIPK3 (Homo sapiens, UniProt Q9H422).
HIPK3, sequence (Q9H422 whole entry): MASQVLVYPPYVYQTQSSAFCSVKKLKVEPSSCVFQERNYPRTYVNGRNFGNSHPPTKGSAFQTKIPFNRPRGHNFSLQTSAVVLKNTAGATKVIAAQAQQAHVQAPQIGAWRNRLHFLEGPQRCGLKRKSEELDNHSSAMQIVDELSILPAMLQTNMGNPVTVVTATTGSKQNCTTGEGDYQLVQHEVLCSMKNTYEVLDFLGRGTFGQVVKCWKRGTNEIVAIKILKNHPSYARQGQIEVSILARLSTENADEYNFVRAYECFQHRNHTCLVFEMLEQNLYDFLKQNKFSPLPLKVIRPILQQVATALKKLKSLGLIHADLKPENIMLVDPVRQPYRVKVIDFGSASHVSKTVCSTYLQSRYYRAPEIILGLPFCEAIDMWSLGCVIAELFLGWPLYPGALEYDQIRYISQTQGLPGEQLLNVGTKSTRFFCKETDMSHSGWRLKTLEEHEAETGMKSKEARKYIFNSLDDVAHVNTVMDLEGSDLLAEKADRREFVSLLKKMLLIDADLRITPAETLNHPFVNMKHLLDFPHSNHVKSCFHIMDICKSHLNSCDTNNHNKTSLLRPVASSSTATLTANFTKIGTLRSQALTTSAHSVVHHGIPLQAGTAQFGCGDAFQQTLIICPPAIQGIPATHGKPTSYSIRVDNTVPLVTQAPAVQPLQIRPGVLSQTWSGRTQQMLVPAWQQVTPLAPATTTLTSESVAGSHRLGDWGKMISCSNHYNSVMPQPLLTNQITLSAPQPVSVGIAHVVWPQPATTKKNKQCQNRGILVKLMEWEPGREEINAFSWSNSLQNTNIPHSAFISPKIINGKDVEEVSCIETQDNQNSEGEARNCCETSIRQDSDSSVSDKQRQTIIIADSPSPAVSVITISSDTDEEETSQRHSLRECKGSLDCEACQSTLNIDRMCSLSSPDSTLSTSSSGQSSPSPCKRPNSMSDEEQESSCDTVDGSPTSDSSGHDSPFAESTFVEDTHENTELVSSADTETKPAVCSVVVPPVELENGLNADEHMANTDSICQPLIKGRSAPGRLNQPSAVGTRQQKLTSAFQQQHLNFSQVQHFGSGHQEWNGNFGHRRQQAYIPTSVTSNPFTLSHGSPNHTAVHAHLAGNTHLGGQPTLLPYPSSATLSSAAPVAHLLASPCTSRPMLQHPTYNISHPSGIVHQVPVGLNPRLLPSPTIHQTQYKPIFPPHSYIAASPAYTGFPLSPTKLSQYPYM
Test [8] deals with NEK4 (Homo sapiens, UniProt P51957).
In test [9] the target is CAMK4 (Homo sapiens, UniProt Q16566).
The target of test [10] is RET(V804L) (Homo sapiens, UniProt P07949, V804L).
For test [11], the target named is TNNI3K (Homo sapiens, UniProt Q59H18).
The target of test [12] is ROCK1 (Homo sapiens, UniProt Q13464).
Test [13] has as its target MARK1 (Homo sapiens, UniProt Q9P0L2).
The target of test [14] is T4, TYK2(JH2domain-pseudokinase) (Homo sapiens, UniProt P29597).
T4 construct: JH2domain-pseudokinase
T4 sequence (P29597 whole entry): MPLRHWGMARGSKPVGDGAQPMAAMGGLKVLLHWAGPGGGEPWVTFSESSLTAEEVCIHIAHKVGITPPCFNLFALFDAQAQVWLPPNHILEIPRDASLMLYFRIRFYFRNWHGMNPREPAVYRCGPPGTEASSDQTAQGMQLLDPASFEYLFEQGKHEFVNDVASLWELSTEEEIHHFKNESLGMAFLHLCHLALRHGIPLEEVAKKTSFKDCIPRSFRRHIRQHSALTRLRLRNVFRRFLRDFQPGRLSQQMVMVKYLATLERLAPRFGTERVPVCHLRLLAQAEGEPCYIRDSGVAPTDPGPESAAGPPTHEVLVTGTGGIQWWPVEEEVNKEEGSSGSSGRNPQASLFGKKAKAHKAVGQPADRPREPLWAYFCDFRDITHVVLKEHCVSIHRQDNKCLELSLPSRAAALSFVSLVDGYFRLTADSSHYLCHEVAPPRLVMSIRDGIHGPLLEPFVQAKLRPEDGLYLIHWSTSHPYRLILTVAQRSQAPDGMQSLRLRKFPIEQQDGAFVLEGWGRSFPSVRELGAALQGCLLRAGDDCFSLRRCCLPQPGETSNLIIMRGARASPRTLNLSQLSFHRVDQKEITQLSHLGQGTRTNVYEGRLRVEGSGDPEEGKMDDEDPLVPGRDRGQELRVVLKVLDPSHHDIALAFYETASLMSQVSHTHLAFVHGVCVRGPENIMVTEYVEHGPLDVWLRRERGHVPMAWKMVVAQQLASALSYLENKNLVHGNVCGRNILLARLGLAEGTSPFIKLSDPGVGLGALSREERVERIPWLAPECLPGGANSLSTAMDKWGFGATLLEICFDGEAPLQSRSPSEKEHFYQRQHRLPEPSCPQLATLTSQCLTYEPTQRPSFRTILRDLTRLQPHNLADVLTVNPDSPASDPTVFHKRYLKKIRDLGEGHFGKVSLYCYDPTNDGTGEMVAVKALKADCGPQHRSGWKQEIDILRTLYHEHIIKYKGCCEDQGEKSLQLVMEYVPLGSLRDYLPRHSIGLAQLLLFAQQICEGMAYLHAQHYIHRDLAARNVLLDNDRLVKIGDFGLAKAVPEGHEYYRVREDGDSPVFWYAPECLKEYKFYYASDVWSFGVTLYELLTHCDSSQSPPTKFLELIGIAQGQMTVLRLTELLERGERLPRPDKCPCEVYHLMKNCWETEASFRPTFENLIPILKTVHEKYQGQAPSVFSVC

Test [15] concerns the target CHEK2 (Homo sapiens, UniProt O96017).
In test [16] the target is PRKCD (Homo sapiens, UniProt Q05655).
PRKCD, sequence (Q05655 whole entry): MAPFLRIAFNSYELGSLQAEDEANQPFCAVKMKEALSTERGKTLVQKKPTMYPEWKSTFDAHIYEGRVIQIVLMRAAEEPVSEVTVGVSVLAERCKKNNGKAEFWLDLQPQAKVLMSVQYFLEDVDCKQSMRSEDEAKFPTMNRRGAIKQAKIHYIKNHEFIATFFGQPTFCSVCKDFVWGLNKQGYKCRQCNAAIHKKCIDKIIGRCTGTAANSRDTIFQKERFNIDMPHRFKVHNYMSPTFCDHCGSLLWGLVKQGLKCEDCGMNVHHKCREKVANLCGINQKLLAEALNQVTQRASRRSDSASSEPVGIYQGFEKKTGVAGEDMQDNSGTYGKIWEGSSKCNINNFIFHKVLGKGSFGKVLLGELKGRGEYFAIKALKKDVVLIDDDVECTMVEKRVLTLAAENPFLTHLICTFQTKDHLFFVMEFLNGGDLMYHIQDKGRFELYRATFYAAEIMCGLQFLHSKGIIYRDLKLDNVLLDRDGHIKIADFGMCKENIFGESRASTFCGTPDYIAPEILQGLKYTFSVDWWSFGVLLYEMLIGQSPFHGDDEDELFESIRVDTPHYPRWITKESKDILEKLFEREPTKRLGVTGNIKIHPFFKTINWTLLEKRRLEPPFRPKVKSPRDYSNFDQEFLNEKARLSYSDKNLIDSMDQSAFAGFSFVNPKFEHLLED
The target of test [17] is ACVR2B (Homo sapiens, UniProt Q13705).
Test [18] has as its target KIT(D816V) (Homo sapiens, UniProt P10721, D816V).
Test [19] deals with WEE2 (Homo sapiens, UniProt P0C1S8).

CHEK2, sequence (O96017 whole entry): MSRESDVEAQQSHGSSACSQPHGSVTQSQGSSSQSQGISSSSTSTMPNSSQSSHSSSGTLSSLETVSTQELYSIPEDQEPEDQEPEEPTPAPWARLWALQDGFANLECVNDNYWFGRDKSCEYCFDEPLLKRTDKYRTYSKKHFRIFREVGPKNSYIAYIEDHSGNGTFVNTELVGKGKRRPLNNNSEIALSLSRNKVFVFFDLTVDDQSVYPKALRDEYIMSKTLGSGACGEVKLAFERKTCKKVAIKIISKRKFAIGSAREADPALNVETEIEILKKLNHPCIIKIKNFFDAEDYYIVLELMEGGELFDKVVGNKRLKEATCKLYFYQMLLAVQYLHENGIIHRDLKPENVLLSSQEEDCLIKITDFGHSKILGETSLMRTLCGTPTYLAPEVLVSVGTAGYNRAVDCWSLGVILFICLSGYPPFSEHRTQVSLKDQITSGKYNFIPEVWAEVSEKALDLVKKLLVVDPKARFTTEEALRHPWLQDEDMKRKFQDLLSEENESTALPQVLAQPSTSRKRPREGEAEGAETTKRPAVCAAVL
T3 sequence (Q8TD08 whole entry): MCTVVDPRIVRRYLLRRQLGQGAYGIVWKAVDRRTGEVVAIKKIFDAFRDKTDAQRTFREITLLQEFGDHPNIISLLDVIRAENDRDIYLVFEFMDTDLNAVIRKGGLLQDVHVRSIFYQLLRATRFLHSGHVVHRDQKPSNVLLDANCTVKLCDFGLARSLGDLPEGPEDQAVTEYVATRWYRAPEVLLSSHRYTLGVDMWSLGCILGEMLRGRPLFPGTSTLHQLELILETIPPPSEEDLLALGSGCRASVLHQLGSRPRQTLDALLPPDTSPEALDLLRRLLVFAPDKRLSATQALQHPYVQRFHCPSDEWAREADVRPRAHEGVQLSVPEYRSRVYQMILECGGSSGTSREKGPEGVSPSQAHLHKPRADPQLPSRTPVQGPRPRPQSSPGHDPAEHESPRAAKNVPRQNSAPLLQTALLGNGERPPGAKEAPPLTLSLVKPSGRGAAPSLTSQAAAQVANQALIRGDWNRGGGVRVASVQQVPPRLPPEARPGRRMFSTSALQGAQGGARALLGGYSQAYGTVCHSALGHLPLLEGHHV
FGR, sequence (P09769 whole entry): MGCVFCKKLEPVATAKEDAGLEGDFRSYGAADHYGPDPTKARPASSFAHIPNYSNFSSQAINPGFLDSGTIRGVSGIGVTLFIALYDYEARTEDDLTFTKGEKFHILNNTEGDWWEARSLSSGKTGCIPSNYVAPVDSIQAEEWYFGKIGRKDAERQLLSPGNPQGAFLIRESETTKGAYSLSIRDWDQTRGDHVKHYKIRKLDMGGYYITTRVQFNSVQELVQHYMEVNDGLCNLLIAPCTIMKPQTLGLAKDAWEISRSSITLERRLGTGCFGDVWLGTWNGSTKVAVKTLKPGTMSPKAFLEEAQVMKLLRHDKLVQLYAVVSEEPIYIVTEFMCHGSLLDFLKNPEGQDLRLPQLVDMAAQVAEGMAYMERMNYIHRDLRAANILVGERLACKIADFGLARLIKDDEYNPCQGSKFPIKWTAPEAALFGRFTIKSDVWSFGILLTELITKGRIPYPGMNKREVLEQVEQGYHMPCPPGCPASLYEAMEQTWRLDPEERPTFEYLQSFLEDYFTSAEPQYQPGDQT

As for `c1ccc2c(c1)Sc1ccccc1N2CCN1CCOCC1` [J54], the remaining binding was determined as 100% in test [1]; 100% in test [2]; 100% in [3]; 79% in test [4]; 100% in test [5]; 89% in test [6]. Moreover, the remaining binding in [7] is 100%; in test [8], 100%; in test [9], 94%; in [10] it was 88%; in test [11], 100%; in test [12] it was 100%. Further, the remaining binding in test [13] is 94%; in test [14], 100%; in test [15], 100%; in test [16], 100%; in test [17], 86%; in [18], 96%. Besides, the remaining binding in test [19] was 100%.
